The values below come from ChEMBL document CHEMBL1129906, “Synthesis and binding affinity of new muscarinic ligands structurally related to oxotremorine” (Bioorg Med Chem Lett, 1997).

Assay [1] has as its target T1, Muscarinic acetylcholine receptor M1 (Rattus norvegicus, UniProt P08482).
T1 sequence (P08482 whole entry): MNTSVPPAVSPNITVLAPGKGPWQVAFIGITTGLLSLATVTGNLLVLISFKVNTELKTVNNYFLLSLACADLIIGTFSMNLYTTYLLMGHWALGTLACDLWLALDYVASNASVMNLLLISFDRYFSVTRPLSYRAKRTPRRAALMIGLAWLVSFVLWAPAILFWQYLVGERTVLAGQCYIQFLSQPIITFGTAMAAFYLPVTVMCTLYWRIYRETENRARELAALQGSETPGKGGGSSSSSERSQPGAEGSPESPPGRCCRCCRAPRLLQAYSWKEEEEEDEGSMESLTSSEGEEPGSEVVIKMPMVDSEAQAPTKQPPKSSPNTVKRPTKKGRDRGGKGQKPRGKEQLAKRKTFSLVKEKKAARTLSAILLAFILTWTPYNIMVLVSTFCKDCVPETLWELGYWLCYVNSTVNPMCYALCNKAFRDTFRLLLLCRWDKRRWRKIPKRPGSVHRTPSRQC
As to the kind of experiment: Binding affinity against Muscarinic receptor M1 in rat brain using [3H]-PZ (pirenzepine) radioligand at a concentration of 1 nM. The format is tissue-based.

Assay [2] deals with T2, Muscarinic acetylcholine receptor M2 (Rattus norvegicus, UniProt P10980).
T2 sequence (P10980 whole entry): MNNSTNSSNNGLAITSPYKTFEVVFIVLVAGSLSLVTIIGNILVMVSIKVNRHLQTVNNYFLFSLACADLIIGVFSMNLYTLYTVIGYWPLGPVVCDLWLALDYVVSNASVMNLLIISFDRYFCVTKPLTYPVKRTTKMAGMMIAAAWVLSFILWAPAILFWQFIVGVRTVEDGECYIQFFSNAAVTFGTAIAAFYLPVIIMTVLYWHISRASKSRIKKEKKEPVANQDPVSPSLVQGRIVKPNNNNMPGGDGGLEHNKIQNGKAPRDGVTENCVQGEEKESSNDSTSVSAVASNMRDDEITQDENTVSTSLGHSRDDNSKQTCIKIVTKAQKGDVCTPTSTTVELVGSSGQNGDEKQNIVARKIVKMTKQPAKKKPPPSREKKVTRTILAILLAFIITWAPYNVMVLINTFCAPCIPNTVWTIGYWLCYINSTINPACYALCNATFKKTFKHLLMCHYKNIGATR
As to the kind of experiment: Binding affinity against Muscarinic receptor M2 in rat brain using [3H]QNB (quinuclidinyl benzylate) radioligand at a concentration of 0.12 nM. The format is tissue-based.

Assay [3] addresses T2, Muscarinic acetylcholine receptor M2. Kind of assay: Muscarinic receptor M2 in rat heart using [3H]QNB (quinuclidinyl benzylate) radioligand as a M2 non-selective muscarinic receptor antagonist at a concentration of 0.12 nM.
Assay [4] addresses Muscarinic acetylcholine receptor. Kind of assay: Compound was assessed for the binding affinity against muscarinic receptor subtypes in rat brain using [3H]OXO-M radioligand as a muscarinic receptor agonist at a concentration of 0.2 nM. The format is tissue-based.
Assay [5] in a line: Selectivity for was determined by the displacement of [3H]PZ in rat brain preparations; expressed as ratio of M1/M2. The format is tissue-based. On the technique in general: Loss of bound radioactivity is the signal in a displacement assay; it reports binding, not function.

Turning to `CN(C)CC#CCN1OCCC1=O`, the IC50 in assay [1] worked out at 7100 nM; in assay [2] it was 101 µM; in assay [3], 1380 nM; in assay [4], 23 nM. In assay [5], the Selectivity ratio was found to be 41.2.

For the compound `O=C1CCCN1CC#CCN1CCCC1` [OXOTREMORINE], the IC50 was determined as 100 nM in assay [1], 2 µM in assay [2], 84 nM in assay [3] and 2 nM in assay [4].

Take `C[N+](C)(C)CC#CCN1OCCC1=O`: the IC50 in assay [1] was 1300 nM; in assay [2], 17.4 µM; in assay [3] it was 74 nM; in assay [4], 0.8 nM. For the same compound, the Selectivity ratio in assay [5] was 140.

Turning to `C(#CCN1CCCC1)COC1=NOCC1`, the IC50 amounted to 412 nM in assay [1], 8.6 µM in assay [2], 233 nM in assay [3] and 4 nM in assay [4].

Consider `O=C1CCON1CC#CCN1CCCC1`, for which the IC50 came to 78 nM in assay [1], 2.8 µM in assay [2], 215 nM in assay [3] and 1.6 nM in assay [4].

In general, IC50 refers to the concentration needed to halve the response being measured. Higher therefore signals lower potency.
